Source: PMC6882468 (Journal of Enzyme Inhibition and Medicinal Chemistry, 2019)

Key:
[1] = test system: NO production in RAW 264.7 macrophages; test: Measurement of LPS-induced NO production (Griess); type: cell-based, Murine; conditions: RAW264.7, 2 h pre-treatment (0–20 µM), LPS 200 ng/mL 24 h
Procedure: Murine RAW 264.7 macrophages were obtained from the American Type Culture Collection (ATCC, USA). The cells were incubated in DMEM media supplemented with 10% FBS, 100 U/mL penicillin and […] streptomycin at 37 °C with 5% CO2. The RAW 264.7 macrophages were inoculated at 96-well plates and were pre-treated with vehicle or 6n (0–20 µM dose range) for 2 h and then stimulated with LPS (200 ng/mL) for 24 h. NO concentration in the medium was determined using Griess reagent kit (Beyotime, China) at 540 nm with a microplate reader (MQX200, Bio-Tek, USA) and calculated the inhibition rate of NO.

[2] = molecular target: T1, COX-1 (Ovis aries, UniProt P05979); test: COX-1 inhibition assay in vitro (COX Inhibitor Screening Kit, fluorometric); type: biochemical
T1 construct: purchased BioVision, Inc
T1 sequence (P05979 25-600): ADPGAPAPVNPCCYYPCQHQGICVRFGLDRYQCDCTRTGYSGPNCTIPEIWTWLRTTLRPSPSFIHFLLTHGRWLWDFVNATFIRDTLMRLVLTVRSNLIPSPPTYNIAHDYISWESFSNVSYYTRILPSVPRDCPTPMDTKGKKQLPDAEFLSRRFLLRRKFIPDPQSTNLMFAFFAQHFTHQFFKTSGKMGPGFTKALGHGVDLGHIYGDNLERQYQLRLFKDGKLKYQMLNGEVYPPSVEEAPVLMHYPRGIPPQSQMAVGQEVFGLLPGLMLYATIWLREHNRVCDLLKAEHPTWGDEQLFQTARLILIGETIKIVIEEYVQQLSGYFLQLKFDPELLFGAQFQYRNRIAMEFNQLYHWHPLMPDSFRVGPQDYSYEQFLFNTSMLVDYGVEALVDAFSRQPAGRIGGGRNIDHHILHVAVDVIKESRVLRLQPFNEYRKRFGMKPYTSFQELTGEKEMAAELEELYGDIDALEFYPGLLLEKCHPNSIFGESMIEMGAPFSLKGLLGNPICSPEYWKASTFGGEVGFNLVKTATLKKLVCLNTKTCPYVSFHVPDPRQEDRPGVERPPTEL
Procedure: Simply, different concentrations of the test compound solution were added to the mixed solution containing COX-1/COX-2 enzyme (10 µL) and Assay Buffer (960 µL, 0.1 M Tris-HCl pH 8.0 containing 5 µM EDTA and 2 µM phenol). […] The IC50 values were calculated as described above.

[3] = test system: JNK phosphorylation in RAW264.7 cells; test: Western blot of LPS-induced JNK phosphorylation; type: cell-based, Murine; conditions: RAW264.7, 5, 10, 20 μM, LPS 200 ng/mL
Procedure: (§1) The cell in 96-well plates were treated as described above and then stimulated with LPS (200 ng/mL) for 24 h. The cells were harvested and lysed in an extraction lysis buffer (Beyotime Biotechnology, Shanghai, China) containing protease inhibitors. The protein concentration was determined using a BCA protein assay kit (Thermo Scientific, 23227). The whole cell lysates were separated by 10% sodium dodecyl sulphate-polyacrylamide gel electrophoresis and transferred to a nitrocellulose membrane. Each membrane was incubated with Tris-buffered saline (pH 7.6, containing 0.05% Tween-20 and 5% non-fat milk). The nitrocellulose membrane was incubated with the primary antibody against p-JNK1/2, JNK1/2, p-p38, p38, p-ERK1/2, ERK1/2, IκBa, NF-κB p65, COX-2, iNOS or β-Actin (Abcam, Cambridge, UK). Immunoreactive bands were detected by incubating with horseradish peroxidase-conjugated secondary antibodies, and visualised using enhanced chemiluminescence reagents (Bio-Rad, Hercules, CA).
(§2) Figure 7. Compound 6n inhibited LPS-induced MAPK-signalling activation in RAW264.7 cells. RAW264.7 cells were co-incubated with 6n (5, 10, 20 μM) and LPS (200 ng/mL) for 30 min. The levels of p38, JNK, ERK1/2 and their phosphorylated forms were analysed using western blot.

[4] = test system: ERK phosphorylation in RAW264.7 cells; test: Western blot of LPS-induced ERK phosphorylation; type: cell-based, Murine; conditions: RAW264.7, 5, 10, 20 μM, LPS 200 ng/mL
Procedure: as §1, §2

[5] = test system: iNOS expression in RAW264.7 cells; test: Western blot of LPS-induced iNOS expression; type: cell-based, Murine; conditions: RAW264.7, LPS 200 ng/mL 24 h
Procedure: as §1
(§3) Figure 6. […] Cell viability was evaluated using the MTT assay. NO production was measured using nitrite and nitrate assay. iNOS and COX-2 expression were detected by Western blot. (A) Cell viability assay; (B) Quantitative analysis of NO productions; (C) Quantitative analysis of iNOS expressions, (D) Quantitative analysis of COX-2 expressions. β-actin was used as loading control.

[6] = test system: p38 phosphorylation in RAW264.7 cells; test: Western blot of LPS-induced p38 phosphorylation; type: cell-based, Murine; conditions: RAW264.7, 5, 10, 20 μM, LPS 200 ng/mL
Procedure: as §1, §2

[7] = test system: COX-2 expression in RAW264.7 cells; test: Western blot of LPS-induced COX-2 expression; type: cell-based, Murine; conditions: RAW264.7, LPS 200 ng/mL 24 h
Procedure: as §1, §3

[8] = molecular target: T2, COX-2 (Homo sapiens, UniProt P35354); test: COX-2 inhibition assay in vitro (COX Inhibitor Screening Kit, fluorometric)
T2 sequence (P35354 18-604): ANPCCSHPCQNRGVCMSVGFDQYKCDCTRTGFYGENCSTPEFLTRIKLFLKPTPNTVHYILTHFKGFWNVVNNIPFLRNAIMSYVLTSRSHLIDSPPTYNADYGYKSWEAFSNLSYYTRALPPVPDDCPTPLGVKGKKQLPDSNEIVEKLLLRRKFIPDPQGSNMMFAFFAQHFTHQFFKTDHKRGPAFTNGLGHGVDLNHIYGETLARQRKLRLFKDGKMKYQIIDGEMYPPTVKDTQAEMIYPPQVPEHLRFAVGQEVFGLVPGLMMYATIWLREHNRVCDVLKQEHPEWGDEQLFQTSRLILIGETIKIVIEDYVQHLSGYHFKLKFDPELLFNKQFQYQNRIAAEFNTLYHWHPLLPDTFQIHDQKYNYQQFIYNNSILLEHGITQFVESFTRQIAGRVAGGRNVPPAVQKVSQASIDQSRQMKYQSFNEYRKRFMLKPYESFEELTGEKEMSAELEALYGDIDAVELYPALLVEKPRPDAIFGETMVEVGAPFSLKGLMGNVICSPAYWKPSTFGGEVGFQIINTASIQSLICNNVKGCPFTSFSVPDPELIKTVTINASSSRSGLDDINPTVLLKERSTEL

Compound: COc1ccccc1CN1CCN(C(=O)c2ccccc2C(C)=O)CC1 [Compound 6n, 1–(2-(4–(2-Methoxybenzyl)piperazine-1-carbonyl)phenyl)ethan-1-one]
- LPS-induced NO production [1]: reduced LPS-induced NO production in a dose-dependent manner
- IC50 [2]: 12.6 ± 0.79 µM
- phosphorylation of JNK [3]: no obvious effect
- phosphorylation of ERK [4]: no obvious effect
- LPS-induced expression of iNOS [5]: dose-dependent decrease
- p38 phosphorylation [6]: significantly lower
- LPS-induced expression of COX-2 [7]: dose-dependent decrease
- IC50 [8]: 0.036 ± 0.004 µM
- SI (COX-1/COX-2) ([8]; IC50 (COX-1)/IC50 (COX-2)): 349.72
